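In this assay, cells in 96-well plates receive the compound at five concentrations for 48 hours. Endpoints are linearly interpolated between the surrounding concentrations. Abbreviation: GI50, concentration required for 50% inhibition of growth.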 Active and inactive are the calls of the source. No stated cut-off is given here; in the data, active = GI50 up to about 1.1 µM and inactive = higher.
How the values were obtained:
Assay in all cases: DTP human tumour cell line panel, 48 h
SN12C = system: SN12C
SW-620 = system: SW-620
HOP-92 = system: HOP-92
SNB-75 = system: SNB-75
DLD-1 = system: DLD-1
A549 = system: A549
A498 = system: A498
M14 = system: M14
UACC-62 = system: UACC-62
NCI-H460 = system: NCI-H460
OVCAR-4 = system: OVCAR-4
OVCAR-3 = system: OVCAR-3
HCC 2998 = system: HCC 2998
NCI-H23 = system: NCI-H23
OVCAR-5 = system: OVCAR-5
HCT-116 = system: HCT-116
NCI-H226 = system: NCI-H226
CCRF-CEM = system: CCRF-CEM

SMILES	GI50 (SN12C)	GI50 (SW-620)	GI50 (HOP-92)	GI50 (SNB-75)	GI50 (DLD-1)	GI50 (A549)	GI50 (A498)	GI50 (M14)	GI50 (UACC-62)	GI50 (NCI-H460)	GI50 (OVCAR-4)	GI50 (OVCAR-3)	GI50 (HCC 2998)	GI50 (NCI-H23)	GI50 (OVCAR-5)	GI50 (HCT-116)	GI50 (NCI-H226)	GI50 (CCRF-CEM)
COC(=O)CC[C@]12C[C@]13CC[C@]1(C)C4C(C)C[C@]5(CC(C)C(=O)O5)OC4CC1(C)C3CCC2C(C)(C)O (stereo partly specified)	61.5 µM (inactive)	56 µM (inactive)	23.7 µM (inactive)	75 µM (inactive)	51.8 µM (inactive)	> 100 µM (inactive)	> 100 µM (inactive)	> 100 µM (inactive)	> 10 µM (inactive)	68.7 µM (inactive)	95.9 µM (inactive)	76 µM (inactive)	51.5 µM (inactive)	97.3 µM (inactive)	> 100 µM (inactive)	85.7 µM (inactive)	–	–
C[C@]12CCC(=O)C[C@H]1CCC(O)[C@@H]2Br (stereo partly specified)	> 100 µM (inactive)	> 100 µM (inactive)	> 100 µM (inactive)	> 100 µM (inactive)	> 100 µM (inactive)	> 100 µM (inactive)	> 100 µM (inactive)	> 100 µM (inactive)	> 100 µM (inactive)	> 100 µM (inactive)	> 100 µM (inactive)	> 100 µM (inactive)	> 100 µM (inactive)	> 100 µM (inactive)	> 100 µM (inactive)	> 100 µM (inactive)	> 100 µM (inactive)	> 100 µM (inactive)
COc1ccc(O)cc1C=O	> 100 µM (inactive)	47.5 µM (inactive)	> 100 µM (inactive)	–	> 100 µM (inactive)	> 100 µM (inactive)	> 100 µM (inactive)	43.2 µM (inactive)	32.7 µM (inactive)	> 100 µM (inactive)	> 100 µM (inactive)	> 100 µM (inactive)	> 100 µM (inactive)	> 100 µM (inactive)	> 100 µM (inactive)	50 µM (inactive)	–	44 µM (inactive)
CCOc1ccccc1/N=N/c1ccc2oc(=O)c(C(=O)Nc3cccc(C)c3)cc2c1	36.3 µM (inactive)	31.3 µM (inactive)	–	37 µM (inactive)	24.2 µM (inactive)	42.3 µM (inactive)	42.5 µM (inactive)	18.7 µM (inactive)	26.2 µM (inactive)	–	28.6 µM (inactive)	20 µM (inactive)	31.3 µM (inactive)	21.4 µM (inactive)	> 100 µM (inactive)	20.2 µM (inactive)	–	18.7 µM (inactive)
CCCCCC/C=C1\CCC(CN2CCCC2)C1=O (stereo unspecified)	12.9 µM (inactive)	> 28.2 µM (inactive)	16.7 µM (inactive)	20.9 µM (inactive)	5.21 µM (inactive)	20.5 µM (inactive)	22.8 µM (inactive)	18.6 µM (inactive)	18.2 µM (inactive)	24.6 µM (inactive)	22.8 µM (inactive)	13.9 µM (inactive)	17.5 µM (inactive)	16.9 µM (inactive)	18.3 µM (inactive)	11.9 µM (inactive)	19.1 µM (inactive)	4.49 µM (inactive)
O=C(CCN1CCCCC1CCO)Nc1ccc2c(c1)C(=O)c1ccc(NC(=O)CCN3CCCCC3CCO)cc1C2=O (stereo unspecified)	3.67 µM (inactive)	2.12 µM (inactive)	13.2 µM (inactive)	2.81 µM (inactive)	2.19 µM (inactive)	16.7 µM (inactive)	1.86 µM (inactive)	–	2.44 µM (inactive)	3.6 µM (inactive)	12.4 µM (inactive)	2.37 µM (inactive)	0.0418 µM (active)	15 µM (inactive)	17.7 µM (inactive)	4.11 µM (inactive)	5.71 µM (inactive)	2.62 µM (inactive)
COc1ccc(C2S/C(=C\c3cccc(O)c3)C(=O)N2NC(=O)Cc2ccccc2)cc1 (stereo unspecified)	> 100 µM (inactive)	> 100 µM (inactive)	> 100 µM (inactive)	> 100 µM (inactive)	> 100 µM (inactive)	> 100 µM (inactive)	> 100 µM (inactive)	> 100 µM (inactive)	> 100 µM (inactive)	> 100 µM (inactive)	> 100 µM (inactive)	–	–	> 100 µM (inactive)	> 100 µM (inactive)	> 100 µM (inactive)	> 100 µM (inactive)	> 100 µM (inactive)
C[C@@H]1C[C@]2(C[C@@H](C)C3[C@@H](CC4(C)[C@@H]5CCC6C(C)(C)OC(=O)C=C[C@]67C[C@@]5(CC[C@]34C)OO7)O2)OC1=O (stereo partly specified)	> 100 µM (inactive)	84.3 µM (inactive)	–	18.4 µM (inactive)	52.7 µM (inactive)	> 100 µM (inactive)	–	48.1 µM (inactive)	21.2 µM (inactive)	86.7 µM (inactive)	24.8 µM (inactive)	24.1 µM (inactive)	> 100 µM (inactive)	> 100 µM (inactive)	> 100 µM (inactive)	61.5 µM (inactive)	24.8 µM (inactive)	–

Source: ChEMBL document CHEMBL1201862, “PubChem BioAssay data set” (2004)
